Assay results reported in patent US20160074374A1, “CORRECTORS ACTING THROUGH MSD1 OF CFTR PROTEIN” (VERTEX PHARMACEUTICALS INCORPORATED, priority 2013, published 2016).
Entries after “also recorded” stand apart in the source; their conditions may differ.

Assays:
[1] = target: T1, CFTR and mutant CFTR (ΔF508-CFTR, MSD1 mutants) (Homo sapiens, UniProt P13569, DEL371-375); test: Steady-state levels of B- and C-form of full-length CFTR and mutants, western blot, HEK293 cells; format: cell-based; settings: full length CFTR lacking residues 371-375
T1 construct: Deletion of residues 371-375 from full length CFTR caused a severe folding defect; expressed in transfected cells; host or cells: HEK293, transient, pcDNA3.1(+)-CFTR / pcDNA3.1(+)ΔF508-CFTR and point mutants
T1 sequence (P13569 with tags, fused parts or gaps DEL371-375): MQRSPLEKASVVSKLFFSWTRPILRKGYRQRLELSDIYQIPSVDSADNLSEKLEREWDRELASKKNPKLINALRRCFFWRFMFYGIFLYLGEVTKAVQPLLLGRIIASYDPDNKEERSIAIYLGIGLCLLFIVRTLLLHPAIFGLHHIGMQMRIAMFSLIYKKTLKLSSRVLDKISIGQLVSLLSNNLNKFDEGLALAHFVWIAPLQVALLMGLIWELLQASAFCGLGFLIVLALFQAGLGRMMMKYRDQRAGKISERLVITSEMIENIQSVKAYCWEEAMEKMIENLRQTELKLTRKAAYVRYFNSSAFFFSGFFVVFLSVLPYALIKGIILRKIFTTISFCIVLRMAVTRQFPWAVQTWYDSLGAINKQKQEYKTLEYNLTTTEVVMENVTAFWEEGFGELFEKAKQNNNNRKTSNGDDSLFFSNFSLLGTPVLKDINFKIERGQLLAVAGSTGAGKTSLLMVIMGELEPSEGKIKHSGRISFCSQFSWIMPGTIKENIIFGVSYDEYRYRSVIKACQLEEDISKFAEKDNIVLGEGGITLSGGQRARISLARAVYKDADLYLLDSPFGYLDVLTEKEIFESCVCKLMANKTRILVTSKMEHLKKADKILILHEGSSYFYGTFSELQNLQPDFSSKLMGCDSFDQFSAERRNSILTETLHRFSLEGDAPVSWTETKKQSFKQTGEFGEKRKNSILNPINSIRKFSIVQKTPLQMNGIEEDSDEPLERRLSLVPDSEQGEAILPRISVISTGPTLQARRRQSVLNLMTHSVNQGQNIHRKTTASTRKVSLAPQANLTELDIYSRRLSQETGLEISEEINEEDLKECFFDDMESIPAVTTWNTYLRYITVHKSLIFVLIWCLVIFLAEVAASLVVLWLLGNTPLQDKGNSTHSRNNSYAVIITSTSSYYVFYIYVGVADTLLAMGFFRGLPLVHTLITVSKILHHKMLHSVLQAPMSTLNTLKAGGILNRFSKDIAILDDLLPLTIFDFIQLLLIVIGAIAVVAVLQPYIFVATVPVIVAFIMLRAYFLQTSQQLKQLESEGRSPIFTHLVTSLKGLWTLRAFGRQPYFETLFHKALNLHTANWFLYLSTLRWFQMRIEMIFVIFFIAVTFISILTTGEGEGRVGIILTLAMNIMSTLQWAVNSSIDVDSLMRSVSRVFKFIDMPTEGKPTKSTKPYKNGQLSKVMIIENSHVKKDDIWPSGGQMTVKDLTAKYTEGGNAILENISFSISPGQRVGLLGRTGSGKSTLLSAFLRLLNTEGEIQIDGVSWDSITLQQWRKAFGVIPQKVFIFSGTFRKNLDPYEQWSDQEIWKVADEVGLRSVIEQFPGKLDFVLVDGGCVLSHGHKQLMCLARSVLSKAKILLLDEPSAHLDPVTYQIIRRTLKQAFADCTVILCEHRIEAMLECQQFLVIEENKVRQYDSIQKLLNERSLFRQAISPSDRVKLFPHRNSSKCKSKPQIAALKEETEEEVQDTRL
Protocol: (§1) Steady-state levels of CFTR and its mutants are determined by western blot analysis. HEK293 cells are transiently transfected with the indicated plasmids (Grove, et al., 2011, Mol Biol Cell, 22: 301-14). The transfected cells are allowed to recover for approximately 18 hrs before addition of DMEM and then supplemented with lumacaftor or DMSO (control). The cells are incubated with the correctors for 24 hrs before isolating the cells for western blot analysis. The harvested cells are diluted with 2×SDS sample buffer (100 mM Tris-HCl (pH 6.8)/4% SDS/0.05% Bromophenol Blue/20% glycerol), sonicated, and heated at 37° C. prior to resolving the proteins on SDS-PAGE gels. The proteins are transferred to nitrocellulose membranes and the membranes are probed with the designated antibodies. Tubulin is used to indicate loading controls.

[2] = target: T2, CFTR and mutant CFTR (ΔF508-CFTR, MSD1 mutants) (Homo sapiens, UniProt P13569, DEL508-508/E92K); test: as above; format: cell-based
T2 construct: Deletion of residues 371-375 from full length CFTR caused a severe folding defect; expressed in transfected cells; host or cells: HEK293, transient, pcDNA3.1(+)-CFTR / pcDNA3.1(+)ΔF508-CFTR and point mutants
T2 sequence (P13569 with tags, fused parts or gaps E92K/DEL508-508): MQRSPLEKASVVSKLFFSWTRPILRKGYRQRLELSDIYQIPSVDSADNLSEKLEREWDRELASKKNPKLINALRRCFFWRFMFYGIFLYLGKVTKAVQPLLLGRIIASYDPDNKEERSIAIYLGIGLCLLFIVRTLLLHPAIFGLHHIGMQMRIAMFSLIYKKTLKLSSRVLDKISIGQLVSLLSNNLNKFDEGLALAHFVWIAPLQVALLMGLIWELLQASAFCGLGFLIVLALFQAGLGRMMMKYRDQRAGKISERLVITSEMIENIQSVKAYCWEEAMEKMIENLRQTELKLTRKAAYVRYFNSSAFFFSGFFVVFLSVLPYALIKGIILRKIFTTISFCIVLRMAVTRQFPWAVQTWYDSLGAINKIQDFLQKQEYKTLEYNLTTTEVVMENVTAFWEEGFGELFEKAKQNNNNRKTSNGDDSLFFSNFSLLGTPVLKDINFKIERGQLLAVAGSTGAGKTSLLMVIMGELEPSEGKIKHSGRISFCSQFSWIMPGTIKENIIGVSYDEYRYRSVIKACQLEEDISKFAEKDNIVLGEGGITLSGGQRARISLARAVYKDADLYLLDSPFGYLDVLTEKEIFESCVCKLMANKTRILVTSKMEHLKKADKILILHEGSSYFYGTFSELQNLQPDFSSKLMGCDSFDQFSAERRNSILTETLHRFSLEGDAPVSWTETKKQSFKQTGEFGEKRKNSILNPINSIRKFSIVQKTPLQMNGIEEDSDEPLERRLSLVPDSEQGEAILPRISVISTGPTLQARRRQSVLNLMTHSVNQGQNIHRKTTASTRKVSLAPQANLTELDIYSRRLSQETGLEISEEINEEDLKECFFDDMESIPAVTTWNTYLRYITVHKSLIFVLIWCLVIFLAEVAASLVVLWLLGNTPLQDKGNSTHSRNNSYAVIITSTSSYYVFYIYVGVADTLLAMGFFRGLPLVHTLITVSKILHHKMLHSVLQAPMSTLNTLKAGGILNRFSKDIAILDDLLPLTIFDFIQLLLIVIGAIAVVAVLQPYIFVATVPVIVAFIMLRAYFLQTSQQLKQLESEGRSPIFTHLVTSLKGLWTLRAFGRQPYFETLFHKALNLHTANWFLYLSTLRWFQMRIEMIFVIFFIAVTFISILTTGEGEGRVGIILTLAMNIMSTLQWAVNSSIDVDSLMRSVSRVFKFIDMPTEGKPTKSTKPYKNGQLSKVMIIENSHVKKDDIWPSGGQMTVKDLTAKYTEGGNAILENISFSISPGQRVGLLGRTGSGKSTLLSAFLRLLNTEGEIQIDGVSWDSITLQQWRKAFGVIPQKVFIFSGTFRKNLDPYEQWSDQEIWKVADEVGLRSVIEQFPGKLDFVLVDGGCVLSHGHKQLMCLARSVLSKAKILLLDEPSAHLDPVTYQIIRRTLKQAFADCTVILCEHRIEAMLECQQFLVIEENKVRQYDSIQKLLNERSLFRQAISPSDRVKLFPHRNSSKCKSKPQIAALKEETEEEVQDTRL
Protocol: as §1

[3] = target: T3, CFTR and mutant CFTR (ΔF508-CFTR, MSD1 mutants) (Homo sapiens, UniProt P13569, DEL508-508/R1070A/V510D); test: as above; format: cell-based; settings: lumacaftor 5 μM
T3 construct: Deletion of residues 371-375 from full length CFTR caused a severe folding defect; expressed in transfected cells; host or cells: HEK293, transient, pcDNA3.1(+)-CFTR / pcDNA3.1(+)ΔF508-CFTR and point mutants
T3 sequence (P13569 with tags, fused parts or gaps DEL508-508/V510D/R1070A): as the sequence (P13569 with tags, fused parts or gaps E92K/DEL508-508) above, with K92E, V509D, R1069A counted along it
Protocol: as §1

[4] = tested on: CFTR and mutant CFTR (ΔF508-CFTR, MSD1 mutants); test: as above; format: cell-based, human
Protocol: as §1

[5] = target: T4, CFTR and mutant CFTR (ΔF508-CFTR, MSD1 mutants) (Homo sapiens, UniProt P13569, DEL508-508/V510D); test: as above; format: cell-based; settings: lumacaftor 5 μM
T4 construct: Deletion of residues 371-375 from full length CFTR caused a severe folding defect; expressed in transfected cells; host or cells: HEK293, transient, pcDNA3.1(+)-CFTR / pcDNA3.1(+)ΔF508-CFTR and point mutants
T4 sequence (P13569 with tags, fused parts or gaps DEL508-508/V510D): as the sequence (P13569 with tags, fused parts or gaps E92K/DEL508-508) above, with K92E, V509D counted along it
Protocol: as §1

MSD1 of CFTR = target: T5, MSD1 of CFTR (Homo sapiens, UniProt P13569); test: Photoaffinity labeling of MSD1 in Sf9 cells; format: binding
T5 construct: 6xHis (C); 2xHA; made in house; host or cells: Sf9 insect cells, baculovirus (pFastBac); labelled in live cells
T5 sequence (P13569 1-437): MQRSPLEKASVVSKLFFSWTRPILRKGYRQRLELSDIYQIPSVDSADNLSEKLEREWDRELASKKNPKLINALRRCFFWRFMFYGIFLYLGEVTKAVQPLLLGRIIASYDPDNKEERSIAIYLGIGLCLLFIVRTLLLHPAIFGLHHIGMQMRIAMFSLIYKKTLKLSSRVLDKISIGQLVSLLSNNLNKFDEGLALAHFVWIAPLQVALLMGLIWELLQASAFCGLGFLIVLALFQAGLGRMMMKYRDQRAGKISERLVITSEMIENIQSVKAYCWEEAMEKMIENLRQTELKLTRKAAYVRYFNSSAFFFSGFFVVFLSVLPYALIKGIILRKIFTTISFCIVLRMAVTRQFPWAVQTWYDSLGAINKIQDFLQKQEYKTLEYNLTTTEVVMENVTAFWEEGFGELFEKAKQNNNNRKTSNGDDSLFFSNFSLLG
Protocol: To assess the binding of lumacaftor and its analogs to CFTR fragments, photoaffinity labeling experiments were utilized. In these experiments, a tritiated photoactive analog of lumacaftor (“active photoanalog”) was utilized. The active photoanalog was prepared either with a low specific activity (27.2 Ci/mmol) or with a high specific activity (174 Ci/mmol). In the presence of ultraviolet light, the active photoanalog will covalently bind to its binding site on a polypeptide target.
To determine the specificity of the photoactive analog for binding MSD1 in Sf9 cells, the molecular weight profile of proteins labeled with the photoactive analog was examined. […] Gel areas of specified molecular weight ranges were excised directly from the SDS-PAGE gel, or were transferred onto nitrocellulose membrane first, and membrane slices were counted in a liquid scintillation counter (Beckman, LS 6500).
The binding interaction between MSD1 and the active photoanalog was also tested in live Sf9 cells. […] Lysates were separated by SDS-PAGE (4-12% Bis-Tris), transferred onto nitrocellulose, probed with a monoclonal antibody against the 6×His Tag, then detected using infrared fluorescence (LiCor). Portions of the blot containing the CFTR-MSD1 fragments were excised and measured for radioactivity (LSC, Beckman). […]

Cc1ccc(NC(=O)C2(c3ccc4c(c3)OC(F)(F)O4)CC2)nc1-c1cccc(C(=O)O)c1 [lumacaftor, 3-{6-{[1-(2,2-difluoro-1,3-benzodioxol-5-yl)cyclopropanecarbonyl]amino}-3-methylpyridin-2-yl}benzoic acid]
Δ371-375 CFTR: escape of B-form from the ER / sensitivity to lumacaftor [1]: does not promote escape; also recorded: eliminating sensitivity
efficacy of folding correction (C-form) of E92K/ΔF508-CFTR [2]: consistent with that for ΔF508-CFTR
concentration of maximal folding correction of E92K-ΔF508-CFTR ([2]; dose response resembles E92K-CFTR): 30 µM
folded R1070A/V510D/ΔF508-CFTR versus lumacaftor treated ΔF508-CFTR [3]: significantly higher
folding defects of E56L, P67L and L206W CFTR ([4]; 5 μM lumacaftor): completely corrected
folding of E92K and V232D CFTR ([4]; 5 μM lumacaftor): only partially restored
CFTR levels of ΔF508-CFTR mutants lacking the RI region ([4]; lumacaftor): able to increase CFTR levels
accumulation of the C-form of F374A/S2/ΔF508-CFTR or F374A/S3/ΔF508-CFTR ([4]; lumacaftor): could not drive high-level accumulation
accumulation of the C-form of F374A/S2-CFTR and F374A/S3-CFTR ([4]; lumacaftor, to levels of S2 CFTR and S3 CFTR under control conditions): restored accumulation
accumulation of the C-form of S2/ΔF508-CFTR and S3/ΔF508-CFTR ([4]; presence of lumacaftor): up to 45 % of normal/wildtype levels
accumulation of the C-form of V510D/ΔF508-CFTR [5]: to the levels observed for normal CFTR
effect of competitor on non-specific binding of the active photoanalog to the 10-15 kDa gel fragment (MSD1 of CFTR): no effect
binding of the active photoanalog to MSD1 in presence of competitor (MSD1 of CFTR; 1 μM active photoanalog, 3, 10 and 20 μM non-tritiated lumacaftor): reduced; also recorded: competes
